From ChEMBL document CHEMBL6087420, “Synthesis and pharmacodynamic evaluation of 2-aminoindole derivatives against influenza A virus in vitro/vivo” (Eur J Med Chem, 2025)
Calls of active or inactive are those of the source. The calls are words filed in the database; no cut-off is given here.

Columns and labels:
[1] = Cytotoxicity against dog MDCK cells after 72 hrs incubation by MTT assay; assay type: toxicity, cell-based, Canis lupus familiaris
Influenza A virus [2] = test: Anti-influenza activity against influenza A virus H1NI (A/Virginia/ATCC2/2009) infected in dog MDCK cells incubated for 72 hrs by MTT assay; assay type: functional, organism-based; conditions: Influenza A virus, H1NI (A/Virginia/ATCC2/2009), MDCK, 72 h
[3] = Selectivity index, ratio of CC50 for dog MDCK cells to EC50 for antiviral activity against Influenza A virus H1N1 (A/Weiss/43) infected in MDCK cells; assay type: toxicity, cell-based; conditions: read-out: Ratio CC50/EC50
[4] = Selectivity index, ratio of CC50 for dog MDCK cells to EC50 for antiviral activity against Influenza A virus H1NI (A/Virginia/ATCC2/2009) infected in MDCK cells; assay type: toxicity, cell-based; conditions: read-out: Selectivity Index
Influenza A virus [5] = test: Antiviral activity against influenza A virus infected in A549 cells assessed as decrease in IAV-M2 mRNA level measured after 1 to 3 days of viral infection; assay type: functional, organism-based; conditions: time 1-3 day
Influenza A virus [6] = test: Inhibition of influenza A virus infection induced apoptosis in MDCK cells infected with influenza virus assessed as viable cells at 25 uM incubated for 36 hrs by AnnexinV-FITC/PI staining based flow cytometry (reference value: 66.9%); assay type: functional
Influenza A virus [7] = test: Inhibition of influenza A virus infection induced apoptosis in MDCK cells infected with influenza virus assessed as early apoptotic cells at 50 uM incubated for 36 hrs by AnnexinV-FITC/PI staining based flow cytometry (reference value: 18.2%); assay type: functional; set-up: scale not given: the % may be the effect or the level left
Influenza A virus [8] = test: Inhibition of influenza A virus infection induced apoptosis in MDCK cells infected with influenza virus assessed as late apoptotic cells at 50 uM incubated for 36 hrs by AnnexinV-FITC/PI staining based flow cytometry (reference value: 13.2%); assay type: functional; set-up: scale not given: the % may be the effect or the level left
Influenza A virus [9] = test: Inhibition of influenza A virus infection induced apoptosis in MDCK cells infected with influenza virus assessed as necrotic cells at 100 uM incubated for 36 hrs by AnnexinV-FITC/PI staining based flow cytometry (reference value: 1.79%); assay type: functional; set-up: scale not given: the % may be the effect or the level left
Influenza A virus [10] = test: Inhibition of influenza A virus infection induced apoptosis in MDCK cells assessed as early apoptotic cells at 100 uM incubated for 36 hrs by AnnexinV-FITC/PI staining based flow cytometry (reference value: 0.96%); assay type: functional; set-up: scale not given: the % may be the effect or the level left
Influenza A virus [11] = test: Inhibition of influenza A virus infection induced apoptosis in MDCK cells assessed as late apoptotic cells at 100 uM incubated for 36 hrs by AnnexinV-FITC/PI staining based flow cytometry (reference value: 0.70%); assay type: functional; set-up: scale not given: the % may be the effect or the level left
Influenza A virus [12] = test: In vivo antiviral activity against influenza A virus infected in BALB/c mouse assessed as reduction in lung index at 25 to 100 mg/kg; assay type: functional, organism-based; conditions: dose 25-100 mg/kg
Influenza A virus [13] = test: Antiviral activity against influenza A virus infected in human A549 cells assessed as inhibition of TLR3 expression by qRT-PCR analysis; assay type: functional, organism-based
Influenza A virus [14] = test: Antiviral activity against influenza A virus infected in human A549 cells assessed as inhibition of RIG-1 expression by qRT-PCR analysis; assay type: functional, organism-based
Influenza A virus [15] = test: Antiviral activity against influenza A virus infected in human A549 cells assessed as inhibition of IRF7 expression by qRT-PCR analysis; assay type: functional, organism-based
Influenza A virus [16] = test: Antiviral activity against influenza A virus infected in human A549 cells assessed as inhibition of TNFalpha expression by qRT-PCR analysis; assay type: functional, organism-based
Influenza A virus [17] = test: Antiviral activity against influenza A virus infected in human A549 cells assessed as inhibition of IL-6 expression by qRT-PCR analysis; assay type: functional, organism-based
Influenza A virus [18] = test: Antiviral activity against influenza A virus infected in human A549 cells assessed as inhibition of IFN-beta expression by qRT-PCR analysis; assay type: functional, organism-based
Influenza A virus [19] = test: Antiviral activity against influenza A virus infected in human A549 cells assessed as inhibition of RIG-1 protein expression at 25 to 100 uM by Western blot analysis; assay type: functional, organism-based; conditions: dose 25-100 µM
Influenza A virus [20] = test: Antiviral activity against influenza virus infected in A549 cells assessed as inhibition in inflammatory cell invasion; assay type: functional, organism-based
Influenza A virus [21] = test: Antiviral activity against influenza A virus infected in A549 cells assessed as decrease in IAV-M2 expression at 25 to 100 uM cells pretreated for 48 hrs followed by infected with virus by green fluorescent labelling based confocal microscopy; assay type: functional, organism-based; conditions: dose 25-100 µM
MDCK = test: Inhibition of influenza virus infection induced mitochondrial membrane potential loss in MDCK cells infected with influenza virus assessed as decrease in green fluorescence at 25 to 100 uM by JC-1 probe based confocal microscopy; assay type: functional, cell-based; conditions: Influenza A virus, dose 25-100 µM
Influenza A virus [22] = test: Antiviral activity against influenza A virus H1N1 infected in MDCK cells assessed as decrease in virus infection-induced cytopathic effect; assay type: functional, organism-based
Influenza A virus [23] = test: Inhibition of influenza A virus infection induced apoptosis in MDCK cells infected with influenza virus assessed as decrease in cleaved caspase 9 incubated for 36 hrs by Western blot analysis; assay type: functional, organism-based
Influenza A virus [24] = test: Inhibition of influenza A virus infection induced apoptosis in MDCK cells infected with influenza virus assessed as decrease in cleaved caspase 3 at 25 to 100 uM incubated for 36 hrs by Western blot analysis; assay type: functional, organism-based; conditions: dose 25-100 µM
Influenza A virus [25] = test: Inhibition of influenza A virus infection induced apoptosis in MDCK cells infected with influenza virus assessed as upregulation of Bcl2 incubated for 36 hrs by Western blot analysis; assay type: functional, organism-based
Influenza A virus [26] = test: In vivo antiviral activity against influenza A virus infected in BALB/c mouse assessed as reduction in lung lesions at 25 to 100 mg/kg; assay type: functional, organism-based; conditions: dose 25-100 mg/kg
Influenza A virus [27] = test: In vivo antiviral activity against influenza A virus infected in BALB/c mouse assessed as reduction in RIG-I mRNA level in lung at 25 to 100 mg/kg measured after 6 dpi; assay type: functional, organism-based; conditions: dose 25-100 mg/kg
Influenza A virus [28] = test: In vivo antiviral activity against influenza A virus infected in BALB/c mouse assessed as reduction in TLR-3 mRNA level in lung at 25 to 100 mg/kg measured after 6 dpi; assay type: functional, organism-based; conditions: dose 25-100 mg/kg
Influenza A virus [29] = test: In vivo antiviral activity against influenza A virus infected in BALB/c mouse assessed as reduction in IFN-gamma mRNA level in lung at 25 to 100 mg/kg measured after 6 dpi; assay type: functional, organism-based; conditions: dose 25-100 mg/kg
Influenza A virus [30] = test: In vivo antiviral activity against influenza A virus infected in BALB/c mouse assessed as reduction in IL-6 mRNA level in lung at 25 to 100 mg/kg measured after 6 dpi; assay type: functional, organism-based; conditions: dose 25-100 mg/kg
Influenza A virus [31] = test: In vivo antiviral activity against influenza A virus infected in BALB/c mouse assessed as reduction in ASC mRNA level in lung at 25 to 100 mg/kg measured after 6 dpi; assay type: functional, organism-based; conditions: dose 25-100 mg/kg
[32] = Toxicity in healthy BALB/c mouse assessed as pathological change in spleen at 25 to 100 mg/kg administered through gavage for 6 days; assay type: organism-based; conditions: in vivo, po, 144 h, dose 25-100 mg/kg, time 6 day
[33] = Toxicity in healthy BALB/c mouse assessed as pathological change in lungs at 25 to 100 mg/kg administered through gavage for 6 days; assay type: organism-based; conditions: in vivo, po, 144 h, dose 25-100 mg/kg, time 6 day
[34] = Toxicity in healthy BALB/c mouse assessed as pathological change in colon at 25 to 100 mg/kg administered through gavage for 6 days; assay type: organism-based; conditions: in vivo, po, 144 h, dose 25-100 mg/kg, time 6 day

**Q.** For COc1ccc2c(c1)c(-c1ccccc1)c(NS(C)(=O)=O)n2S(=O)(=O)c1ccc(C)cc1, which CC50 at 72 h [1] is on record?
**A.** 669 µM

**Q.** And the EC50 (Influenza A virus [2])?
**A.** 12.9 µM

**Q.** And the selectivity ratio [3]?
**A.** 80

**Q.** And the selectivity ratio [4]?
**A.** 51.9

**Q.** What about the Activity (Influenza A virus [5]) of the same compound?
**A.** Active

**Q.** And the Activity (Influenza A virus [6])?
**A.** 71.9%

**Q.** What about the Activity (Influenza A virus [7]) of the same compound?
**A.** 9.21%

**Q.** What about the Activity (Influenza A virus [8]) of the same compound?
**A.** 4.07%

**Q.** And the Activity (Influenza A virus [9])?
**A.** 1.74%

**Q.** What about the Activity (Influenza A virus [10]) of the same compound?
**A.** 0.89%

**Q.** What about the Activity (Influenza A virus [11]) of the same compound?
**A.** 0.83%

**Q.** What about the Activity (Influenza A virus [12]) of the same compound?
**A.** Active

**Q.** What about the Activity (Influenza A virus [13]) of the same compound?
**A.** Active

**Q.** And the Activity (Influenza A virus [14])?
**A.** Active

**Q.** And the Activity (Influenza A virus [15])?
**A.** Active

**Q.** What about the Activity (Influenza A virus [16]) of the same compound?
**A.** Active

**Q.** And the Activity (Influenza A virus [17])?
**A.** Active

**Q.** What about the Activity (Influenza A virus [18]) of the same compound?
**A.** Active

**Q.** What about the Activity (Influenza A virus [19]) of the same compound?
**A.** Active

**Q.** What about the Activity (Influenza A virus [20]) of the same compound?
**A.** Active

**Q.** And the Activity (Influenza A virus [21])?
**A.** Active

**Q.** What about the inhibition (MDCK) of the same compound?
**A.** Active

**Q.** What about the Activity (Influenza A virus [22]) of the same compound?
**A.** Active

**Q.** What about the Activity (Influenza A virus [23]) of the same compound?
**A.** Dose-dependent-effect

**Q.** What about the Activity (Influenza A virus [24]) of the same compound?
**A.** Active

**Q.** What about the Activity (Influenza A virus [25]) of the same compound?
**A.** Active

**Q.** What about the Activity (Influenza A virus [26]) of the same compound?
**A.** Active; Compound Alleviate Red Liver-Like Degeneration Stage, With Edema And Expansion, And Dark Red Lesions And Lung Consolidation - Only Mild Edema Observed

**Q.** And the Activity (Influenza A virus [27])?
**A.** Active

**Q.** What about the Activity (Influenza A virus [28]) of the same compound?
**A.** Active

**Q.** What about the Activity (Influenza A virus [29]) of the same compound?
**A.** Active

**Q.** What about the Activity (Influenza A virus [30]) of the same compound?
**A.** Active

**Q.** What about the Activity (Influenza A virus [31]) of the same compound?
**A.** Active

**Q.** And the Activity [32]?
**A.** Non-toxic

**Q.** And the Activity [33]?
**A.** Non-toxic

**Q.** What about the Activity [34] of the same compound?
**A.** Non-toxic
